Values quoted from earlier work as cited in US6689302B2, “Method of making an antimicrobial tympanostomy tube” (Medtronic Xomed, Inc., priority 1993, dated 2004).

Tested on: postoperative otorrhea
Conditions: Baker and Chole trial; ophthalmic solution used as otic drops

In the case of Gentamicin, the incidence of infection is given as “significantly reduced”.
